These results are taken from patent publication US11672795B2, “Compositions and methods for treating pulmonary vascular disease” (UNIVERSITY OF PITTSBURGH-OF THE COMMONWEALTH SYSTEM OF …, priority 2016, dated 2023).

One assay concerns Lox. The experiment in a line: Lox activity in lungs of monocrotaline-exposed rats. The note with it: daily BAPN or daily i.p. verteporfin 25 mg/kg, vs vehicle. The assay is classed as in vivo, rat. On the procedure: Monocrotaline-treated rats: As we previously described (7, 8), male Sprague-Dawley rats (10-14 week old) were injected with 60 mg/kg monocrotaline at time 0; at 0-4 weeks post-exposure, right heart catheterization was performed followed by harvest of lung tissue for RNA extraction or paraffin embedding, as described below (section: Tissue harvest).
To establish definitively whether periarteriolar ECM remodeling and YAP/TAZ modulate vascular cell metabolism in vivo, it was determined whether alteration of YAP/TAZ-dependent mechanotransduction directly controls glutaminolysis and PH development in the monocrotaline rat model. First, using a known pharmacologic inhibitor (β-aminoproprionitrile, BAPN) of Lox, the enzyme responsible for collagen crosslinking and consequent matrix stiffening, it was determined whether inhibition of ECM stiffening could prevent the metabolic changes and downstream PH manifestations observed in monocrotaline-exposed rats (FIG. 4A). […] Such metabolic effects further decreased vascular endothelial and smooth muscle proliferation, as reflected by in situ arteriolar staining (FIG. 4G), and ameliorated hemodynamic and histologic manifestations of PH, as measured by vascular remodeling and muscularization (FIG. 4G), and right ventricular systolic pressure (RVSP) (FIG. 4H).

Another assay deals with GLS1. The assay can be described thus: GLS1 expression by RT-qPCR in monocrotaline-exposed rats. Particulars: for GLS expression: CD31+ cells of monocrotaline-exposed rats, daily BAPN or daily i.p. verteporfin 25 mg/kg; for GLS1 expression in lungs: monocrotaline-exposed rats, daily BAPN or daily i.p. verteporfin, vs vehicle, RT-qPCR. The assay is classed as in vivo, rat. On the procedure: (§1) Messenger RNAs were reverse transcribed using the Multiscript RT kit (Life Technologies) to generate cDNA. cDNA was amplified via fluorescently labeled Taqman primer sets using an Applied Biosystems 7900HT Fast Real Time PCR device. To specifically determine the relative expression of the two GLS1 isoforms KGA and GAC, TaqMan gene expression assays Hs01014019_m1 and Hs01022166_m1 were used respectively. Fold-change of RNA species was calculated using the formula (2^−ΔΔCt), normalized to RPLP0 expression.
As previously reported (8, 11), lobes of lung tissue from a rat were diced with scissors, to which 200 μL of collagenase D solution (Sigma) was added for a final concentration of 2 mg/ml collagenase D in 4.8 mL HEPES buffer (pH=7.4). After incubation for 30 min at 37° C. with automated rotation, 20 μL of DNase I (Sigma, final concentration of 80 U/mL DNase I) was added and incubated on ice for 30 min. The solution was filtered twice by a 70 μm cell strainer (BD Biosciences) to yield a single cell suspension. After two rounds of PBS wash, cell pelleting, and resuspension, the ACK lysing buffer (Gibco) was used to remove erythrocytes. Remained cells were incubated 30 min at 4° C. with a mouse anti-rat-CD31 antibody (BD Pharmigen 555025). Cells were PBS washed twice and incubated 15 min with anti-mouse IgG1 MicroBeads (Miltenyi Biotec) according to the manufacturer protocol. Single CD31-positive cells were then collected using an autoMACS Pro Separator, per the manufacturer's instructions (Miltenyi Biotec). The purity (>95%) of CD31 positive cells was confirmed by flow cytometric analysis by a FACScan flow cytometer (BD Biosciences) after cells labeling with the FITC-conjugated anti-CD31 (ab33858, Abcam).

In assay [1] the test system is PAAFs. The experiment in a line: PAAF-dependent ECM remodelling on cytokine stimulation (RT-qPCR, picrosirius red). The assay is classed as cell-based. The note with it: for TGF-b-induced ECM related genes expression / fibroblast activation marker (a-SMA) expression: PAAFs, RT-qPCR; for fibroblast activation marker (a-SMA) expression: TGF-b; for PAAFs dependent ECM remodelling: stimulation by pro-inflammatory cytokines (EDN1, IL6 or TGF-b).
Source text: (§2) A-C) Pharmacological inhibition of GLS1 by either BPTES, C968 or CB839 blunted metabolic activation of PAAFs cultivated on stiff matrix as reflected by decreased glutaminolysis (A), glycolysis (B) and aspartate production (C). D-E) Pharmacological inhibition of GLS1 by either BPTES, C968 or CB839 decreased PAAFs dependent ECM remodelling upon stimulation by pro-inflammatory cytokines (EDN1, IL6 or TGF-b). […] G-H) Fibrilar collagen visualization (G) and quantification (H) by picrosirius red staining confirmed a decreased of ECM remodelling by activated PAAF (TGF-b) in presence of GLS1 inhibitors. I-M) PAAFs were cultivated upon indicated treatments. Cells were removed and pulmonary arterial endothelial cells (PAECs) were cultivated on the matrix synthesized by the PAAF. […] Data are expressed as mean±SEM (*P<0.05, § P<0.01, #P<0.001) of at least 3 independent experiments performed in triplicate. Paired samples were compared by 2-tailed Student's t test, while 1-way ANOVA and post-hoc Tukey's tests were used for group comparisons.
as §1
Picrosirius Red stain was achieved through the use of 5 μm paraffin sections stained with 0.1% Picrosirius Red (Direct Red80, Sigma-Aldrich) and counterstained with Weigert's hematoxylin to reveal fibrillar collagen. The sections were then serially imaged using with an analyzer and polarizer oriented parallel and orthogonal to each other. Microscope conditions (lamp brightness, condenser opening, objective, zoom, exposure time, and gain parameters) were maintained throughout the imaging of all samples. A minimal threshold was set on appropriate control sections for each experiment in which only the light passing through the orthogonally-oriented polarizers representing fibrous structures (i.e., excluding residual light from the black background) was included. The threshold was maintained for all images across all conditions within each experiment. The area of the transferred regions that was covered by the thresholded light was calculated and at least 10 sections/vessel per condition were averaged together (NIH ImageJ software). Targeted LC-MS/MS
(In qPCR the cycle at which signal appears reflects the starting amount.)

Assay [2] has as its system PAAFs. The assay can be described thus: Metabolic activation of PAAFs cultivated on stiff matrix. The assay is classed as cell-based.
Source text: as §2

For the compound `N#CCCN` [BAPN, β-aminoproprionitrile], the “LOX activity in lungs” value in the assay with Lox is listed as “decreased”. In the assay on GLS1, the GLS expression entry is listed as “decrease” and the “GLS1 expression in lungs” value was “decreased”.
For `CN(C)c1ccc(C2Nc3ccc4ccccc4c3C3=C2C(=O)CC(C)(C)C3)cc1Br` (stereo not drawn) [C968, 5-(3-Bromo-4-(dimethylamino)phenyl)-2,2-dimethyl-2,3,5,6-tetrahydrobenzo[a]phenanthridin-4(1H)-one], in the assay on PAAFs [1], the “TGF-b-induced ECM related genes expression” value is “decreased”, the “fibroblast activation marker (a-SMA) expression” value was “decreased” and the “PAAFs dependent ECM remodelling” value is recorded as “decreased”. In the assay on PAAFs [2], the aspartate production result is “decreased”, the glutaminolysis result is recorded as “decreased”, the glycolysis entry is listed as “decreased” and the “metabolic activation of PAAFs” value was “blunted”.
As for `O=C(Cc1cccc(OC(F)(F)F)c1)Nc1ccc(CCCCc2nnc(NC(=O)Cc3ccccn3)s2)nn1` [CB839], in the assay on PAAFs [1], the “TGF-b-induced ECM related genes expression” value was “decreased”, the “fibroblast activation marker (a-SMA) expression” value is “decreased” and the “PAAFs dependent ECM remodelling” value is given as “decreased”. Also, in the assay on PAAFs [2], the aspartate production entry was “decreased”, the glutaminolysis entry is recorded as “decreased”, the glycolysis result is reported as “decreased” and the “metabolic activation of PAAFs” value was “blunted”.
`C=Cc1c(C)c2cc3nc(cc4[nH]c(cc5nc(cc1[nH]2)C(C)=C5CCC(=O)O)c(CCC(=O)OC)c4C)[C@@]1(C)C3=CC=C(C(=O)OC)[C@H]1C(=O)OC` [Verteporfin, 3-[(23S,24R)-14-ethenyl-5-(3-methoxy-3-oxopropyl)-22,23-bis(methoxycarbonyl)-4,10,15,24-tetramethyl-25,26,27,28-tetraazahexacyclo[16.6.1.1^3,6.1^8,11.1^13,16.0^19,24]octacosa-1,3,5,7,9,11(27),12,14,16,18(25),19,21-dodecaen-9-yl]propanoic acid]: the “LOX activity in lungs” value with Lox is “decreased”. Further, in the assay with GLS1, the GLS expression entry is listed as “decrease” and the “GLS1 expression in lungs” value is recorded as “decreased”. Further, in the assay on GLS1 (listed as verteporfin), the GLS expression entry is listed as “improved”.
